Test results from PMC11591356, “Immunomodulatory Effects of the Tobacco Defensin NaD1” (Antibiotics, 2024).
Several values for one entry are separate records, joined by “and”; a condition that tells them apart may be missing. Equal values may be shown once. Ends that are not written are not given here.

What was measured:
[1] = system: immature monocyte-derived dendritic cells (moDC); test: Multiplex xMAP assessment of cytokine production by immature monocyte-derived dendritic cells; type: cell-based, human
Procedure: Immature monocyte-derived dendritic cells (moDC) were obtained from primary monocytes by a differentiation protocol involving a cytokine cocktail with IL-4 and GM-CSF [38]. For this, the monocytes were cultured in complete RPMI-1640 containing 10% HS, 1×AA solution, 500 U/mL rhIL-4 (Sci-Store, Moscow, Russia) and 800 U/mL rhGM-CSF (Sci-Store) for 3 days. Then, the cells were re-fed with the fresh medium with rhIL-4 and rhGM-CSF and cultured for 4 more days.
For the study of the immunomodulatory properties of NaD1, monocytes and immature dendritic cells (moDC) were seeded into the wells of a 24-well plate at densities of 4 × 10^5 and 1.3 × 10^5 cells per well, respectively, in complete RPMI-1640 with 10% HS and AA solution. Then, 24 h later, the culture medium was replaced by a fresh one either with 2 μM NaD1 for stimulation of the cells or without if for the control wells. The cultures were kept in a humidified CO2-intubator for 24 h and then the samples of the culture media were taken and frozen.
The absolute levels of 48 cytokines, chemokines and growth factors were determined at a protein level by multiplex xMAP technology (Luminex, Austin, TX, USA). For this, a MILLIPLEX Human Panel A kit (HCYTA-60K-PX48, Merck, Darmstadt, Germany) was used and the following 48 analytes were evaluated in two biological replications: sCD40L, EGF, CCL11/Eotaxin-1, FGF-basic/FGF-2, Flt-3 ligand, CX3CL1/Fractalkine, G-CSF, GM-CSF, GROα, IFNα2, IFN-γ, IL-1α, IL-1β, IL-1RA, IL-2, IL-3, IL-4, IL-5, IL-6, IL-7, CXCL8/IL-8, IL-9, IL-10, IL-12(p40), IL-12(p70), IL-13, IL-15, IL-17A/CTLA8, IL-17E/IL-25, IL-17F, IL-18, IL-22, IL-27, CXCL10/IP-10, CCL2/MCP-1, CCL7/MCP-3, M-CSF, CCL22/MDC, CXCL9/MIG, CCL3/MIP-1α, CCL4/MIP-1β, PDGF-AA, PDGF-AB/BB, CCL5/RANTES, TGF-α, TNF-α, TNF-β and VEGF-A. The fluorescent data were obtained on a MAGPIX system (Merck) operated with xPONENT 4.2 software (Merck). Final analysis was performed in MILLIPLEX Analyst v5.1 software (Merck).

[2] = system: Caco-2 polarized monolayer; test: Caco-2 permeability assay, bidirectional transport; type: in vitro ADME, human; conditions: Caco-2 polarized monolayer (21 days, TEER > 400 Ω cm^2), 5 µM FITC-labeled NaD1, HBSS transfer buffer pH 7.4, 90 min
Procedure: Caco-2 (ATCC HTB-37) cells were thawed and cultured in complete DMEM/F-12 culture medium (Corning), supplemented with 10% FBS in a humidified CO2-intubator. After the culture was subcultivated three times, the cells were seeded on cell inserts (PET, 0.4 μm, 0.6 cm^2 surface area, SPL Life Sciences, Pocheon-si, Republic of Korea) at a density of 2.5 × 10^5 cells/cm^2. Cells were grown for 21 days with re-feeding with the fresh medium every 2–3 days. To evaluate integrity of Caco-2 monolayer, a transepithelial electrical resistance (TEER) was measured by Millicell ERS-2 Voltohmmeter (Merck-Millipore, Burlington, MA, USA). Only inserts with TEER > 400 Ω cm^2 were used in the transport assay.
The permeability assay was conducted in transfer buffer (HBSS solution, containing 1 mM CaCl2, 1 mM MgCl2, 10 mM D(+)glucose, pH 7.4). […]
The apparent permeability coefficients (Papp) were calculated for each insert according to the following equation: Papp = dQ/dt × (1/(A × C0)), where dQ/dt is an amount of product present in the basolateral or apical chamber as a function of time (nM/s), A is an area of the insert (in cm^2) and C0 is an initial concentration of NaD1 in the apical or basolateral chamber (nM/mL). […]

NaD1: Recombinant tobacco floral defensin NaD1 (UNIPROT Q8GTM0), obtained by heterologous expression in E. coli; FITC-labeled in the permeability assay (RECKTESNTFPGICITKPPCRKACISEKFTDGHCSKILRRCLCTKPC; cysteine pairing not given here; also: FITC label; UniProt Q8GTM0 26-72, looked up)
sCD40L absolute level ([1]; immature moDCs + 2 μM NaD1, 24 h, two biological replications, untreated control 116.89): 92.12 pg/mL
IL-2 absolute level ([1]; moDCs + 2 μM NaD1, 24 h, control 0.51): <0.35↓ pg/ml
IFNg absolute level ([1]; moDCs + 2 μM NaD1, 24 h, control 0.81): <0.61↓ pg/ml
IL-18 absolute level ([1]; moDCs + 2 μM NaD1, 24 h, control 1.17): 0.78 pg/mL
IL-10 absolute level ([1]; moDCs + 2 μM NaD1, 24 h, control 1.76): <1.29↓ pg/ml
IL-6 absolute level ([1]; moDCs + 2 μM NaD1, 24 h, control 1.92): 0.85 pg/mL
IL-9 absolute level ([1]; moDCs + 2 μM NaD1, 24 h, control 2.31): 0.83 pg/mL
IP-10 absolute level ([1]; moDCs + 2 μM NaD1, 24 h, control 2.51): 2.51 pg/mL
GM-CSF absolute level ([1]; moDCs + 2 μM NaD1, 24 h, control 3.8): 2.87 pg/mL
IL-4 absolute level ([1]; moDCs + 2 μM NaD1, 24 h, control 4.21): 4.38 pg/mL
GROa absolute level ([1]; moDCs + 2 μM NaD1, 24 h, control 5.3): 2.88 pg/mL
EGF absolute level ([1]; moDCs + 2 μM NaD1, 24 h, control 5.38): 3.12 pg/mL
TGF-a absolute level ([1]; moDCs + 2 μM NaD1, 24 h, control 6.04): 4.68 pg/mL
IL-12 (p40) absolute level ([1]; moDCs + 2 μM NaD1, 24 h, control 6.14): <2.07↓ pg/ml
G-CSF absolute level ([1]; moDCs + 2 μM NaD1, 24 h, control 6.59): 6.59 pg/mL
IL-13 absolute level ([1]; moDCs + 2 μM NaD1, 24 h, control 10.99): <2.24↓ pg/ml
IL-1b absolute level ([1]; moDCs + 2 μM NaD1, 24 h, control 12.11): 5.8 pg/mL
IL-1a absolute level ([1]; moDCs + 2 μM NaD1, 24 h, control 12.13): 15.76 pg/mL
IFNa2 absolute level ([1]; moDCs + 2 μM NaD1, 24 h, control 13.22): 7.1 pg/mL
PDGF-AA absolute level ([1]; moDCs + 2 μM NaD1, 24 h, control 14.68): 12.15 pg/mL
Fractalkine absolute level ([1]; moDCs + 2 μM NaD1, 24 h, control 26.94): 20.9 pg/mL
TNFa absolute level ([1]; moDCs + 2 μM NaD1, 24 h, control 45.9): 30.64 pg/mL
MCP-3 absolute level ([1]; moDCs + 2 μM NaD1, 24 h, control 62.22): 44.12 pg/mL
MIP-1a absolute level ([1]; moDCs + 2 μM NaD1, 24 h, control 62.72): 35.36 pg/mL
MIG absolute level ([1]; moDCs + 2 μM NaD1, 24 h, control 76.28): 16.72 pg/mL
FGF-2 absolute level ([1]; moDCs + 2 μM NaD1, 24 h, control 78.9): 71.22 pg/mL
IL-27 absolute level ([1]; moDCs + 2 μM NaD1, 24 h, control 80.06): 68.79 pg/mL
M-GSF absolute level ([1]; moDCs + 2 μM NaD1, 24 h, control 101.68): 45.07 pg/mL
IL-1RA absolute level ([1]; moDCs + 2 μM NaD1, 24 h, control 199.63): 133 pg/mL and 133.58 pg/mL
MIP-1b absolute level ([1]; moDCs + 2 μM NaD1, 24 h, control 204.09): 120 pg/mL and 120.19 pg/mL
MCP-1 absolute level ([1]; moDCs + 2 μM NaD1, 24 h, control 514.13): 288 pg/mL and 288.04 pg/mL
MDC absolute level ([1]; moDCs + 2 μM NaD1, 24 h, control 1484): 1278 pg/mL
IL-8 absolute level ([1]; moDCs + 2 μM NaD1, 24 h, control 1856): 1037 pg/mL
IL-7 absolute level ([1]; moDCs + 2 μM NaD1, 24 h, control <0.32): <0.32↓ pg/ml
IL-5 absolute level ([1]; moDCs + 2 μM NaD1, 24 h, control <0.33): <0.33↓ pg/ml
FLT-3L absolute level ([1]; moDCs + 2 μM NaD1, 24 h, control <0.61): <0.61↓ pg/ml
RANTES absolute level ([1]; moDCs + 2 μM NaD1, 24 h, control <0.73): <0.73↓ pg/ml
IL-3 absolute level ([1]; moDCs + 2 μM NaD1, 24 h, control <0.77): <0.77↓ pg/ml
TNFb absolute level ([1]; moDCs + 2 μM NaD1, 24 h, control <0.78): <0.78↓ pg/ml
IL-17A absolute level ([1]; moDCs + 2 μM NaD1, 24 h, control <1.00): <1.00↓ pg/ml
VEGFa absolute level ([1]; moDCs + 2 μM NaD1, 24 h, control <1.44): <1.44↓ pg/ml
IL-12 (p70) absolute level ([1]; moDCs + 2 μM NaD1, 24 h, control <1.79): <1.79↓ pg/ml
IL-15 absolute level ([1]; moDCs + 2 μM NaD1, 24 h, control <1.84): <1.84↓ pg/ml
Eotaxin absolute level ([1]; moDCs + 2 μM NaD1, 24 h, control <3.80): <3.80↓ pg/ml
PDGF-AB/BB absolute level ([1]; moDCs + 2 μM NaD1, 24 h, control <5.75): <5.75↓ pg/ml
IL-22 absolute level ([1]; moDCs + 2 μM NaD1, 24 h, control <9.00): <9.00↓ pg/ml
IL-17F absolute level ([1]; moDCs + 2 μM NaD1, 24 h, control <16.98): <16.98↓ pg/ml
IL-17E/IL-25 absolute level ([1]; moDCs + 2 μM NaD1, 24 h, control <25.82): <25.82↓ pg/ml
Apparent permeability coefficient Papp, A→B (absorptive) ([2]; apical to basolateral, mean of 6 independent inserts): 2.72 ×10⁻⁶ cm/s
Apparent permeability coefficient Papp, B→A (secretory) ([2]; basolateral to apical, mean of 4 independent inserts): 2.22 ×10⁻⁶ cm/s
